The structures appear in SMILES notation. Counter-ions that a name gives are not always drawn. Activity calls are given as the source filed them. On the calls: in the data inactive means no Kd found up to 30 µM.

Experiment [1] concerns the target Serine/threonine-protein kinase Nek7 (Homo sapiens, UniProt Q8TDX7).
Experiment [2] deals with Serine/threonine-protein kinase pim-2 (Homo sapiens, UniProt Q9P1W9).
Experiment [3] addresses T1, Cyclin-dependent kinase-like 5 (Homo sapiens, UniProt O76039).
T1 sequence (O76039 whole entry): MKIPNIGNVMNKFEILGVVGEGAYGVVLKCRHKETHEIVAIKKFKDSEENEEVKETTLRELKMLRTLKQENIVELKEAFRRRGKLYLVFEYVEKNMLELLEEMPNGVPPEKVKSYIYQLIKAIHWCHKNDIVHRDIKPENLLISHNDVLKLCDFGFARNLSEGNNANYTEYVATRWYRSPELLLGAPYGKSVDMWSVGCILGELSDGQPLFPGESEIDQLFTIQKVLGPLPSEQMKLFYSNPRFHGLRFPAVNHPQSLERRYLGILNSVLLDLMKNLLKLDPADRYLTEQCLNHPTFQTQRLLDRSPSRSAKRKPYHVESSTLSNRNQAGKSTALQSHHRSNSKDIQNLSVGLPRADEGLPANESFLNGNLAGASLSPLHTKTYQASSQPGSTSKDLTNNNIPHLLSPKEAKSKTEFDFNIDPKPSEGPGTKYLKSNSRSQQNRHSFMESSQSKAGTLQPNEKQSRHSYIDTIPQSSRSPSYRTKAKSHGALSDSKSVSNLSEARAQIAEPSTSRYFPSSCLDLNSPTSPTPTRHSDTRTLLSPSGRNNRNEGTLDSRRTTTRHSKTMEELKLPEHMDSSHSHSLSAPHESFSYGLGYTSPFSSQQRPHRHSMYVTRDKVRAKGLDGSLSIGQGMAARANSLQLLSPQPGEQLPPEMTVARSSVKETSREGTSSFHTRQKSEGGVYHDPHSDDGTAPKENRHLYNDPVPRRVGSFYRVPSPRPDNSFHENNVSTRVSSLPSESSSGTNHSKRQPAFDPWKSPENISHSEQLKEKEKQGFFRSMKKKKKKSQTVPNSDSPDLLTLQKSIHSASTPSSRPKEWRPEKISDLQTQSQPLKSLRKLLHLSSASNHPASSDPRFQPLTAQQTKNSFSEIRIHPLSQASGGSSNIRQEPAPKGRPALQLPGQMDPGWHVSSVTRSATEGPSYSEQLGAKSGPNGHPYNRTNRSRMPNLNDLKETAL

Experiment [4] concerns the target T2, Electron transfer flavoprotein subunit beta (Homo sapiens, UniProt P38117).
T2 sequence (P38117 whole entry): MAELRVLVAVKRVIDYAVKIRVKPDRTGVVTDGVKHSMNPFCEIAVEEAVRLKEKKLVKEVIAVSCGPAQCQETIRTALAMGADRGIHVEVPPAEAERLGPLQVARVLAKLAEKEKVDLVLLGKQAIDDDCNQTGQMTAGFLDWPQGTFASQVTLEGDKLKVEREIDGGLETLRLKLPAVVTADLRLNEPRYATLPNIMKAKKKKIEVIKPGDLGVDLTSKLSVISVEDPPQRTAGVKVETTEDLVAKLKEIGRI

Experiment [5] has as its target T3, Dual specificity mitogen-activated protein kinase kinase 4 (Homo sapiens, UniProt P45985).
T3 sequence (P45985 whole entry): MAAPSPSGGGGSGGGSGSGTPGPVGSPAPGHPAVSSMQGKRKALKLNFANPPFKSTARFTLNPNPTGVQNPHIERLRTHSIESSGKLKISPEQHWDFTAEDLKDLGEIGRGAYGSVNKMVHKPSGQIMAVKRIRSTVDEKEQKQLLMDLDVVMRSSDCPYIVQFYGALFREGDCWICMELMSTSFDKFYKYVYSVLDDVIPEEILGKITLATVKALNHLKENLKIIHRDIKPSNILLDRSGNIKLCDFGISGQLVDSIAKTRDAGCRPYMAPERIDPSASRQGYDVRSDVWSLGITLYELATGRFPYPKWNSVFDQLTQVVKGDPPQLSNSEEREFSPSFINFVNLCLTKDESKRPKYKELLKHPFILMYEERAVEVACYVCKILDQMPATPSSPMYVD

Chain of Serine/threonine-protein kinase pim-2 (Q9P1W9 whole entry): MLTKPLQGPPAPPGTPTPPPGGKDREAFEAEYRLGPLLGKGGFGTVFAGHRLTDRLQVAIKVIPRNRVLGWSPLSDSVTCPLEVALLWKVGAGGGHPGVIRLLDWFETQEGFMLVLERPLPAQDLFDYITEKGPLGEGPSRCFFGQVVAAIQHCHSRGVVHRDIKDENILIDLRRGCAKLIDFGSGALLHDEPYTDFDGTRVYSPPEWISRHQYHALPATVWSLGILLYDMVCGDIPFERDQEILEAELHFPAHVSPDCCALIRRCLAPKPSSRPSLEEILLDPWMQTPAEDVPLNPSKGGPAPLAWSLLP
Chain of Serine/threonine-protein kinase Nek7 (Q8TDX7 whole entry): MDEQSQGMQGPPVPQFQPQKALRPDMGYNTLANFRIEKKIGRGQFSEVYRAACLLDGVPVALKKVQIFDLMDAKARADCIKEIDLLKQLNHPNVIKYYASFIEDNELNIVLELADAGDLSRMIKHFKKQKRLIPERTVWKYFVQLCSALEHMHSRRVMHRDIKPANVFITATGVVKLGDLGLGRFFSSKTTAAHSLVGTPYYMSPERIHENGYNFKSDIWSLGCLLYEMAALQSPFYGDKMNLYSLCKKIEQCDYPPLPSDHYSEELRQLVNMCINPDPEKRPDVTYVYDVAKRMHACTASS

As for `C[C@@H](Oc1cc(C(=O)Nc2ccc(C(=O)N3CCN(C)CC3)cc2)nnc1N)c1c(Cl)ccc(F)c1Cl`, the Kd in experiment [1] and in experiment [2] was > 30 µM (inactive) throughout.

Turning to `C[C@H]1CNCCCN1S(=O)(=O)c1cccc2cncc(F)c12`, the Kd in experiment [3] and in experiment [1] was > 30 µM (inactive) throughout.

Turning to `CC(=O)c1cnc2ccc(-c3cc(Cl)c(O)c(Cl)c3)nc2c1N[C@H]1CC[C@H](CN(C)C)CC1`, the Kd in experiment [4] and in experiment [1] was > 30 µM (inactive) in each case.

`CCNC(=O)C#Cc1ccc2c(c1)NC(=O)/C2=C(\Nc1ccc(CN(C)C)cc1)c1ccccc1`: the Kd was 0.02 µM (active) in experiment [3] and > 30 µM (inactive) in experiment [1].

Consider `COCc1c(-c2ccc(NC(=O)Nc3cc(C(F)(F)F)ccc3F)c(F)c2)c2c(N)ncnn2c1CN1CCOCC1`, for which the Kd in experiment [3] and in experiment [4] was > 30 µM (inactive) each time.

`COc1cc(Nc2ncc3c(n2)-c2ccc(Cl)cc2C(c2c(F)cccc2OC)=NC3)ccc1C(=O)O` [ALISERTIB]: the Kd in experiment [4], in experiment [5] and in experiment [1] was > 30 µM (inactive) throughout.

Turning to `Cc1nc(NC(=O)N2CCC[C@H]2C(N)=O)sc1-c1ccnc(C(C)(C)C(F)(F)F)c1` [ALPELISIB], the Kd in experiment [4] and in experiment [5] was > 30 µM (inactive) each time.

`O=C(Nc1c[nH]nc1-c1nc2cc(CN3CCOCC3)ccc2[nH]1)NC1CC1` [AT-9283]: the Kd in experiment [3], in experiment [4], in experiment [1] and in experiment [2] was > 30 µM (inactive) each time.

For `C=CC(=O)Nc1cc2c(Nc3ccc(F)c(Cl)c3)ncnc2cc1C#CC(C)(C)N1CCN(C)CC1` [AV-412 FREE BASE], the Kd in experiment [3] and in experiment [2] was > 30 µM (inactive) throughout.

`CNC(=O)c1ccccc1Sc1ccc2c(/C=C/c3ccccn3)n[nH]c2c1` [AXITINIB]: the Kd in experiment [4] is > 30 µM (inactive).

Regarding `COc1cc([C@@H]2c3cc4c(cc3[C@H](O)[C@H]3COC(=O)[C@@H]23)OCO4)cc(OC)c1OC` [AXL-1717], the Kd in experiment [4] and in experiment [2] was > 30 µM (inactive) in each case.

With `NC(=O)Nc1cc(-c2cccc(F)c2)sc1C(=O)N[C@H]1CCCNC1` [AZD-7762], the Kd in experiment [4], in experiment [1] and in experiment [2] was > 30 µM (inactive) each time.

In the case of `CCn1c(C(=O)N(C2CC2)C2CC2)cc2c3c(ncn3C)c(Nc3cc(C)n(C)n3)nc21` [BMS-911543], the Kd in experiment [3], in experiment [4] and in experiment [1] was > 30 µM (inactive) each time.

For `C#Cc1cccc(Nc2ncnc3cc(OC)c(OCCCCCCC(=O)NO)cc23)c1` [CUDC-101], the Kd in experiment [3], in experiment [4] and in experiment [2] was > 30 µM (inactive) in each case.

Take `CCS(=O)(=O)N1CCN(c2ccc(Nc3ncc(C(N)=O)c(NC4CC4)n3)cc2)CC1` [Cerdulatinib Hydrochloride]: the Kd in experiment [3] and in experiment [2] was > 30 µM (inactive) throughout.

`Cc1nc2cc(-n3ncc(C(=O)c4cc5ccccc5[nH]4)c3N)ccc2[nH]1` [FGFR INHIBITOR DEBIO 1347]: the Kd in experiment [3], in experiment [4] and in experiment [2] was > 30 µM (inactive) each time.

Consider `Cc1cccc(-c2nn3c(c2-c2ccnc4ccc(C(N)=O)cc24)CCC3)n1` [GALUNISERTIB], for which the Kd in experiment [4], in experiment [1] and in experiment [2] was > 30 µM (inactive) in each case.

With `C[C@@H](Oc1cc(-n2cnc3ccc(CN4CCN(C)CC4)cc32)sc1C(N)=O)c1ccccc1C(F)(F)F` [GSK-461364], the Kd in experiment [4] was > 30 µM (inactive).

Take `COc1ccc(S(=O)(=O)N(C(C)=O)c2ccccc2/C=C/c2cc[n+]([O-])cc2)cc1` [HMN-214]: the Kd in experiment [3], in experiment [1] and in experiment [2] was > 30 µM (inactive) in each case.

Consider `CNC(=O)c1cccc2cc(Oc3ccnc4cc(OCC5(N)CC5)c(OC)cc34)ccc12` [LUCITANIB], for which the Kd in experiment [3], in experiment [4], in experiment [1] and in experiment [2] was > 30 µM (inactive) in each case.

With `CN(C[C@@H]1COCCO1)S(=O)(=O)Nc1ccc2ccc3ncc(-c4cnn(C)c4)cc3c(=O)c2c1` [MK-2461], the Kd in experiment [4] and in experiment [2] was > 30 µM (inactive) in each case.

`Cn1cc(-c2cnc3ccc4ccc(CS(=O)(=O)NCc5ccccn5)cc4c(=O)c3c2)cn1` [MK-8033]: the Kd in experiment [4], in experiment [1] and in experiment [2] was > 30 µM (inactive) in each case.

As for `COc1ncc(-c2ccc3nccc(-c4ccnnc4)c3c2)cc1NS(=O)(=O)c1ccc(F)cc1F` [OMIPALISIB], the Kd in experiment [4] and in experiment [1] was > 30 µM (inactive) throughout.

For `NC(=O)c1c(OCc2c(F)cc(Br)cc2F)nsc1NC(=O)NCCCCN1CCCC1` [OSI-632], the Kd in experiment [3], in experiment [4] and in experiment [5] was > 30 µM (inactive) throughout.

`CCCCCCCCCCCCCCCCCCOP(=O)([O-])OC1CC[N+](C)(C)CC1` [PERIFOSINE]: the Kd in experiment [4] and in experiment [2] was > 30 µM (inactive) throughout.

As to `Cc1nc(Nc2n[nH]c3c2CN(C(=O)N[C@H](CN(C)C)c2ccccc2)C3(C)C)c2sccc2n1` [PF-03758309], the Kd was 1.93 µM (active) in experiment [3], > 30 µM (inactive) in experiment [4] and > 30 µM (inactive) in experiment [5].

On to `N#CC1(c2ccc(NC(=O)c3cccnc3NCc3ccncc3)cc2)CCCC1` [RIVOCERANIB], for which the Kd in experiment [3], in experiment [4] and in experiment [1] was > 30 µM (inactive) each time.

With `O=C(NOCCO)c1cc(CN2OCCCC2=O)c(F)c(F)c1Nc1ccc(I)cc1F` [RO-4987655], the Kd in experiment [4] is > 30 µM (inactive).

For the compound `N#CC[C@H](C1CCCC1)n1cc(-c2ncnc3[nH]ccc23)cn1` [RUXOLITINIB], the Kd in experiment [4] is > 30 µM (inactive).

Turning to `CN1CCN(CCOc2cc(OC3CCOCC3)c3c(Nc4c(Cl)ccc5c4OCO5)ncnc3c2)CC1` [SARACATINIB], the Kd in experiment [5], in experiment [1] and in experiment [2] was > 30 µM (inactive) in each case.

As for `Cn1cc(-c2cnn3c(N)c(Br)c([C@@H]4CCCNC4)nc23)cn1` [SCH-900776], the Kd in experiment [3], in experiment [4] and in experiment [1] was > 30 µM (inactive) throughout.

On to `O=C1NC(=O)[C@@H](c2cn3c4c(cccc24)CCC3)[C@@H]1c1c[nH]c2ccccc12` [TIVANTINIB], for which the Kd in experiment [4], in experiment [1] and in experiment [2] was > 30 µM (inactive) in each case.

As for `Cn1ncc(Cl)c1-c1cc(C(=O)N[C@H](CN)Cc2ccc(F)c(F)c2)oc1Cl` [UPROSERTIB], the Kd in experiment [4] and in experiment [2] was > 30 µM (inactive) each time.

For `CC(C)c1cc(CNc2nc(Nc3cc(C4CC4)[nH]n3)cc(N3CCN(C)CC3)n2)on1` [XL-228], the Kd in experiment [3], in experiment [1] and in experiment [2] was > 30 µM (inactive) throughout.

For `C[C@@H](N)c1ccc(C(=O)Nc2ccnc3[nH]ccc23)cc1` [Y-39983], the Kd in experiment [3] and in experiment [5] was > 30 µM (inactive) in each case.

In the case of `CN1C/C=C/CCOc2cccc(c2)-c2ccnc(n2)Nc2cccc(c2)C1` [ZOTIRACICLIB], the Kd in experiment [3] and in experiment [1] was > 30 µM (inactive) in each case.

The values are drawn from ChEMBL document CHEMBL3991601, “The target landscape of clinical kinase drugs” (Science, 2017).
